pIC50: −log10 of the molar value.

In this assay the target is T1, SF9 affinity purified rat FPT (Rattus norvegicus, UniProt Q02293+Q04631).
T1 construct: made in house; host or cells: Sf9 insect cells
Kind of assay: PFT (FPT) inhibitory activity assay, radiolabeled farnesyl pyrophosphate and biotinyl peptide, streptavidin beads. The assay is classed as biochemical. Conditions: HEPES buffer pH 7.4, 30° C., 30 minutes; read-out: FTase IC50. The protocol:
The PFT or FPT inhibitory activity of compounds of the present invention were assayed in HEPES buffer (pH 7.4) containing 5 mM potassium phosphate and 20 μM ZnCl2. The solution also contained 5 mM DTT (dithiothreitol), 5 mM MgCl2, and 0.1% PEG 8000. Assays were performed in 96 well plates (Wallec) and employed solutions composed of varying concentrations of a compound of the present invention in 10% DMSO (dimethylsulfoxide). […] After incubation at 30° C. for 30 minutes, the reaction was terminated by diluting the reaction 2.5-fold with a stop buffer containing 1.5 M magnesium acetate, 0.2 M H3PO4, 0.5% BSA (bovine serum albumin), and strepavidin beads (Amersham) at a concentration of 1.3 mg/mL. […] The assay was also carried out without 5 mM potassium phosphate.
As a reminder, the pIC50 is the IC50 on a negative log10 scale, so that one unit is a factor of ten. As to `O=C1CCCc2c1ccc(O[C@H](Cn1ccnc1)c1ccccc1)c2-c1cccc(Cl)c1` [Compound 22, 6-((1S)-2-Imidazolyl-1-phenylethoxy)-5-(3-chlorophenyl)-2,3,4-trihydronaphthalen-1-one], the negative logarithm of the IC50 (pIC50) is 7.59.
Turning to `O=C1CCCc2c1ccc(O[C@H](Cn1ccnc1)c1ccccc1)c2-c1ccc2ccccc2c1` [Compound 23, 6-((1S)-2-Imidazolyl-1-phenylethoxy)-5-(2-naphthyl)-2,3,4-trihydronaphthalen-1-one], the pIC50 is 7.96.
With `O=C1CCCc2c1ccc(O[C@H](Cn1ccnc1)c1ccccc1)c2CCc1ccccn1` [Compound 24, 6-((1S)-2-Imidazolyl-1-phenylethoxy)-5-(2-(2-pyridyl)ethyl)-2,3,4-trihydronaphthalen-1-one] the figure was 9.40; with `O=C1CCCc2c1ccc(O[C@H](Cn1ccnc1)c1ccccc1)c2CCc1cccc[n+]1[O-]` [Compound 25, 6-((1S)-2-Imidazolyl-1-phenylethoxy)-5-[2-(1-oxy(2-pyridyl))ethyl]-2,3,4-trihydronaphthalen-1-one], 8.30; with `O=C1CCCc2c1ccc(O[C@H](Cn1ccnc1)c1ccccc1)c2CCc1ccncc1` [Compound 26, 6-((1S)-2-Imidazolyl-1-phenylethoxy)-5-(2-(4-pyridyl)ethyl)-2,3,4-trihydronaphthalen-1-one], 8.70.
With `O=C1CCCc2c1ccc(O[C@H](Cn1ccnc1)c1ccccc1)c2CCc1cc[n+]([O-])cc1` [Compound 26a] the figure was 8.30; with `O=C1CCCc2c1ccc(O[C@H](Cn1ccnc1)c1ccccc1)c2CCc1cccnc1` [Compound 26b, (S)-6-(-2-imidazol-1-yl-phenyl-ethoxy)-5-(2-pyridin-3-yl-ethyl)-3,4-dihydro-2H-naphthalen-1-one], 9.07.
On to `O=C1CCCc2c1ccc(O[C@H](Cn1ccnc1)c1ccccc1)c2CCc1cncc2ccccc12` [Compound 26c, (S)-6-(-2-Imidazol-1-yl-1-phenyl-ethoxy)-5-(2-isoquinolin-4-yl-ethyl)-3,4-dihydro-2H-naphthalen-1-one], for which the pIC50 was 9.70.
Next, `COC(=O)c1ccc(CCc2c(O[C@H](Cn3ccnc3)c3ccccc3)ccc3c2CCCC3=O)cc1` [Compound 27, Methyl 4-(2-[2-((1S)-2-imidazolyl-1-phenylethoxy)-5-oxo-6,7,8-trihydronaphthyl]ethyl}benzoate]: 8.00; `COC(=O)c1ccc(CCc2c(O[C@H](Cn3ccnc3)c3ccccc3)ccc3c2CCCC3=O)cc1` [Compound 28, Methyl 4-{2-[2-((1S)-2-imidazolyl-1-phenylethoxy)-5-oxo-6,7,8-trihydronaphthyl]ethyl}benzoate]: 7.89; `CNC(=O)c1ccc(CCc2c(O[C@H](Cn3ccnc3)c3ccccc3)ccc3c2CCCC3=O)cc1` [Compound 29]: 10.00.
On to `O=C1CCCc2c1ccc(O[C@H](Cn1ccnc1)c1ccccc1)c2CCc1ccc(F)cc1` [Compound 30, 6-((1S)-2-Imidazolyl-1-phenylethoxy)-5-[2-(4-fluorophenyl)ethyl]-2,3,4-trihydronaphthalen-1-one], for which the pIC50 is 9.70.
`COC(=O)CCc1c(O[C@H](Cn2ccnc2)c2ccccc2)ccc2c1CCCC2=O` [Compound 31, Methyl 3-[2-((1S)-2-imidazolyl-1-phenylethoxy)-5-oxo-6,7,8-trihydronaphthyl]propanoate]: the negative-log IC50 (pIC50) was 8.00.
Next, `O=C(O)CCc1c(O[C@H](Cn2ccnc2)c2ccccc2)ccc2c1CCCC2=O` [Compound 32, 3-[2-((1S)-2-Imidazolyl-1-phenylethoxy)-5-oxo-6,7,8-trihydronaphthyl]propanoic acid]: 7.60; `N#Cc1ccc(Cc2c(O[C@H](Cn3ccnc3)c3ccccc3)ccc3c2CCCC3=O)cc1` [Compound 33, 4-{[2-((1S)-2-Imidazolyl-1-phenylethoxy)-5-oxo-6,7,8-trihydronaphthyl]methyl}benzenecarbonitrile]: 8.40; `O=C1CCCc2c1ccc(O[C@H](Cn1ccnc1)c1ccccc1)c2Br` [Compound 34, 6-((1S)-2-Imidazolyl-1-phenylethoxy)-5-bromo-2,3,4-trihydronaphthalen-1-one]: 7.60.
Next, `O=C1CCCc2c1ccc(O[C@H](Cn1ccnc1)c1ccccc1)c2-c1ccsc1` [Compound 35]: 7.82.
Next, `O=C1CCCc2c1ccc(O[C@H](Cn1ccnc1)c1ccccc1)c2-c1ccoc1` [Compound 36]: 8.15.
Regarding `Nc1c(O[C@H](Cn2ccnc2)c2ccccc2)ccc2c1CCCC2=O` [Compound 37a, 5-Amino-6-((S)-2-imidazol-1-yl-1-phenyl-ethoxy)-3,4-dihydro-2H-naphthalen-1-one], the pIC50 was 7.85.
As to `O=C1CCCc2c1ccc(O[C@H](Cn1ccnc1)c1ccccc1)c2NS(=O)(=O)c1ccccc1` [Compound 38, N-[2-((S)-2-Imidazol-1-yl-1-phenyl-ethoxy)-5-oxo-5,6,7,8-tetrahydro-naphthalen-1-yl]-benzenesulfonamide], the pIC50 is 7.51.
Turning to `O=C1CCCc2c1ccc(O[C@H](Cn1ccnc1)c1ccccc1)c2NS(=O)(=O)Cc1ccccc1` [Compound 39, N-[2-((S)-2-Imidazol-1-yl-1-phenyl-ethoxy)-5-oxo-5,6,7,8-tetrahydro-naphthalen-1-yl]-1-phenyl-methanesulfonamide], the pIC50 is 9.00.
As to `O=C(Cc1ccccn1)Nc1c(O[C@H](Cn2ccnc2)c2ccccc2)ccc2c1CCCC2=O` [Compound 39a, N-[2-((S)-2-Imidazol-1-yl-1-phenyl-ethoxy)-5-oxo-5,6,7,8-tetrahydro-naphthalen-1-yl]-2-pyridin-2-yl-acetamide], the pIC50 is 7.42.
Regarding `O=C(Nc1c(O[C@H](Cn2ccnc2)c2ccccc2)ccc2c1CCCC2=O)c1ccccn1` [Compound 40, Pyridine-2-carboxylic acid [2-((S)-2-imidazol-1-yl-1-phenyl-ethoxy)-5-oxo-5,6,7,8-tetrahydro-naphthalen-1-yl]-amide], the negative-log IC50 (pIC50) was 8.14.
With `O=C1CCCc2c1ccc(O[C@H](Cn1ccnc1)c1ccccc1)c2NC(=O)c1nccc2ccccc12` [Compound 40a, Isoquinoline-1-carboxylic acid [2-((S)-2-imidazol-1-yl-1-phenyl-ethoxy)-5-oxo-5,6,7,8-tetrahydro-naphthalen-1-yl]-amide] the figure was 9.19; with `O=C(Nc1c(O[C@H](Cn2ccnc2)c2ccccc2)ccc2c1CCCC2=O)c1cc2ccccc2cn1` [Compound 40b, Isoquinioline-3-carboxylic acid [2-((S)-2-imidazol-1-yl-1-phenyl-ethoxy)-5-oxo-5,6,7,8-tetrahydro-naphthalen-1-yl]-amide], 8.22.
Regarding `O=C(Nc1c(O[C@H](Cn2ccnc2)c2ccccc2)ccc2c1CCCC2=O)c1cnccn1` [Compound 40c], the pIC50 is 8.92.
With `O=C1CCCc2c1ccc(O[C@H](Cn1ccnc1)c1ccccc1)c2NC(=O)c1ncoc1-c1ccc(Cl)cc1` [Compound 40d, 5-(4-Chloro-phenyl)-oxazole-4-carboxylic acid [2-((S)-2-imidazol-1-yl-1-phenyl-ethoxy)-5-oxo-5,6,7,8-tetrahydro-naphthalen-1-yl]-amide] the figure was 8.05.
Next, `O=C(Nc1c(O[C@H](Cn2ccnc2)c2ccccc2)ccc2c1CCCC2=O)c1cccnc1Cl` [Compound 40e, N-[2-((S)-2-Imidazol-1-yl-1-phenyl-ethoxy)-5-oxo-5,6,7,8-tetrahydro-naphthalen-1-yl]-2-chloro-nicotinamide]: 8.60; `O=C(Nc1c(O[C@H](Cn2ccnc2)c2ccccc2)ccc2c1CCCC2=O)c1cccnc1Oc1ccccc1` [Compound 40f, N-[2-((S)-2-Imidazol-1-yl-1-phenyl-ethoxy)-5-oxo-5,6,7,8-tetrahydro-naphthalen-4-1-yl]-2-phenoxy-nicotinamide]: 7.89; `O=C1CCCc2c1ccc(O[C@H](Cn1ccnc1)c1ccccc1)c2NC(=O)c1cccc2cccnc12` [Compound 40g, Quinoline-8-carboxylic acid [2-((S)-2-imidazol-1-yl-1-phenyl-ethoxy)-5-oxo-5,6,7,8-tetrahydro-naphthalen-1-yl]-amide]: 9.10.
Consider `CC(C)(C)OC(=O)NCc1c(O[C@H](Cn2ccnc2)c2ccccc2)ccc2c1CCCC2=O` [Compound 41, [2-((S)-2-Imidazol-1-yl-1-phenyl-ethoxy)-5-oxo-5,6,7,8-tetrahydro-naphthalen-1-ylmethyl]-carbamic acid tert-butyl ester], for which the pIC50 was 7.85.
Consider `O=C1CCCc2c1ccc(O[C@H](Cn1ccnc1)c1ccccc1)c2CNS(=O)(=O)c1ccccc1` [Compound 42, N-[2-((S)-2-Imidazol-1-y-1-phenyl-71-ethoxy)-5-oxo-5,6,7,8-tetrahydro-naphthalen-1-ylmethyl]-benzenesulfonamide], for which the pIC50 is 8.82.
In the case of `COc1ccc(S(=O)(=O)NCc2c(O[C@H](Cn3ccnc3)c3ccccc3)ccc3c2CCCC3=O)cc1` [Compound 42a, N-[2-((S)-2-Imidazol-1-yl-1-phenyl-ethoxy)-5-oxo-5,6,7,8-tetrahydro-naphthalen-1-ylmethyl]-4-methoxy-benzenesulfonamide], the negative-log IC50 (pIC50) was 8.96.
As to `O=C1CCCc2c1ccc(O[C@H](Cn1ccnc1)c1ccccc1)c2CNS(=O)(=O)c1ccc(F)cc1F` [Compound 42b, 2,4-Difluoro-N-[2-((S)-2-imidazol-1-yl-1-phenyl-ethoxy)-5-oxo-5,6,7,8-tetrahydro-naphthalen-1-ylmethyl]-benzenesulfonamide; compound with trifluoro-acetic acid], the pIC50 is 8.46.

The record behind these values is patent US6943183B2 (Pfizer Inc, priority 2000, dated 2005).
